This passage reports IC50 and Activity results from ChEMBL document CHEMBL4342436, “Artemisia: a promising plant for the treatment of cancer” (Bioorg Med Chem, 2020).

pIC50: −log10 of the molar value. Converted amounts (≈) assume the structure as drawn. Where only a bound is given, the exact number is not on record here.

One test concerns U-937. Briefly: Cytotoxicity against human U937 cells after 48 hrs by MTT assay. Format: functional, cell-based. To be noted: U-937, 48 h. A general note: Tetrazolium assays rely on reduction of a dye to a coloured formazan, in cell work by metabolically active cells.
Test [1] relates to HeLa. Briefly: Cytotoxicity against human HeLa cells after 48 hrs by MTT assay. The test is classed as functional, cell-based.
For test [2], the system named is A549. Put plainly: Cytotoxicity against human A549 cells after 48 hrs by MTT assay. The test is classed as functional, cell-based. To be noted: A549, 48 h.
For test [3], the system named is A549. Briefly: Cytotoxicity against human A549 cells by SRB assay. The test is classed as functional, cell-based.
Another test has as its system SK-MEL-2. Put plainly: Cytotoxicity against human SK-MEL-2 cells by SRB assay. Format: functional, cell-based. Background: The SRB assay estimates cell density from bound dye.
The subject of the next test is SK-OV-3. Put plainly: Cytotoxicity against human SKOV3 cells by SRB assay. The test is classed as functional, cell-based.
Another test has as its system XF498. Put plainly: Cytotoxicity against human XF498 cells by SRB assay. The test is classed as functional, cell-based.
The next test relates to HCT-15. Put plainly: Cytotoxicity against human HCT15 cells by SRB assay. The test is classed as functional, cell-based.
Test [4] deals with PANC-1. Briefly: Antitumour activity against human PANC1 cells xenografted in ip dosed nude BALB/c mouse assessed as tumor weight for 18 days. Format: functional. (Xenograft models place foreign cells or tissue in a host animal.)
Test [5] concerns PANC-1. Briefly: Cytotoxicity against human PANC1 cells assessed as cell viability after 24 hrs by MTT assay relative to control. The test is classed as functional.
The subject of test [6] is CFPAC-1. Put plainly: Cytotoxicity against human CFPAC-1 cells assessed as cell viability after 24 hrs by MTT assay relative to control. The test is classed as functional.
For test [7], the system named is CFPAC-1. Briefly: Antitumour activity against human CFPAC-1 cells xenografted in ip dosed nude BALB/c mouse assessed as tumor weight for 18 days. The test is classed as functional.
A short description of test [8]: Cytotoxicity against human YD-10B cells assessed as reduction in cell viability after 48 hr by MTT asssay. Format: functional, cell-based.
Test [9] deals with A549. Briefly: Cytotoxicity against human A549 cells by MTT assay. Format: functional, cell-based.
A further test concerns Bel-7402. Put plainly: Cytotoxicity against human Bel7402 cells by MTT assay. Format: functional, cell-based.
The subject of a further test is A-431. Put plainly: Cytotoxicity against human A431 cells after 72 hrs by MTT assay. Format: functional, cell-based. To be noted: A-431, 72 h.
The test system of a further test is MCF7. Briefly: Cytotoxicity against human MCF7 cells after 72 hrs by MTT assay. The test is classed as functional, cell-based. To be noted: MCF7, 72 h.
The next test relates to A2780. Put plainly: Cytotoxicity against human A2780 cells after 72 hrs by MTT assay. The test is classed as functional, cell-based. To be noted: A2780, 72 h.
In test [10] the test system is HeLa. Briefly: Cytotoxicity against human HeLa cells after 72 hrs by MTT assay. The test is classed as functional, cell-based.
The test system of the next test is HL-60. Briefly: Antiproliferative activity against human HL60 cells assessed as reduction in cell viability after 3 days by XTT assay. Format: functional, cell-based. To be noted: HL-60, 72 h.
A further test has as its system SH-SY5Y. Put plainly: Cytotoxicity against human SH-SY5Y cells after 72 hrs by MTT assay. The test is classed as functional, cell-based.
Test [11] can be described thus: Cytotoxicity against mouse S17 cells after 72 hrs by MTT assay. To be noted: S17, 72 h. The test is classed as functional, cell-based.
The test system of another test is HepG2. Put plainly: Cytotoxicity against human HepG2 cells after 72 hrs by MTT assay. Format: functional, cell-based. To be noted: HepG2, 72 h.

On to `C=C1C(=O)O[C@@H]2/C=C(\C)[C@@H](OC(=O)[C@@H](C)CC)C/C=C(\C)CC[C@@H]12`, for which the IC50 in the test on U-937, with HeLa [1] and in the test on A549 [2] was 16 to 43.5 µg/mL (≈ 48.1 to 131 µM) each time.
In the case of `CC(C)=CCC[C@H](C)[C@H]1C[C@H]2OO[C@@H]1C=C2C`, the IC50 with A549 [3], with SK-MEL-2, in the test with SK-OV-3, in the test on XF498 and with HCT-15 was 0.2 to 5.43 µg/mL (≈ 0.846 to 23 µM) throughout.
For the molecule `CC(C)[C@]12O[C@H]1[C@@H]1O[C@]13[C@]1(O[C@H]1C[C@H]1C4=C(CC[C@@]13C)C(=O)OC4)[C@@H]2O` [TRIPTOLIDE], the Activity with PANC-1 [4] is listed as under 0.4 g; in the test with PANC-1 [5], under 10%; in the test on CFPAC-1 [6], under 10%; in the test on CFPAC-1 [7], under 0.4 g.
Take `C=C1C(=O)O[C@H]2[C@H]1[C@@H](OC(=O)/C(C)=C\C)CC(C)=C1C[C@@H]3O[C@]3(C)[C@@H]12`: the IC50 in the test with U-937, in the test on HeLa [1] and in the test on A549 [2] was 16 to 43.5 µg/mL (≈ 46.5 to 126 µM) throughout.
Take `CC(=O)O[C@H]1C(=O)[C@@]2(C)[C@H]([C@H](OC(=O)c3ccccc3)[C@]3(O)C[C@H](OC(=O)[C@H](O)[C@@H](NC(=O)c4ccccc4)c4ccccc4)C(C)=C1C3(C)C)[C@]1(OC(C)=O)CO[C@@H]1C[C@@H]2O` [PACLITAXEL]: the pIC50 (usually the negative decadic logarithm of the IC50, by convention in mol/L) in test [8] was 4.88.
For `COc1cc2ccc(=O)oc2c(OC)c1O`, the IC50 in the test with A549 [3], in the test on SK-MEL-2, in the test on SK-OV-3, in the test with XF498 and with HCT-15 was 0.4 to 26.8 µg/mL (≈ 1.8 to 121 µM) throughout.
For `C=C1C(=O)O[C@H]2[C@H]1[C@@H](OC(C)=O)C[C@@](C)(O)[C@@]13O[C@@H]1[C@@H](Cl)[C@](C)(O)[C@H]23`, the pIC50 in the test on A549 [9] and in the test with Bel-7402 was 5.22 to 5.48 in each case.
For the molecule `C=C1C(=O)O[C@@H]2C[C@@]3(C)C=CC(=O)C(C)=C3C[C@H]12`, the IC50 with A549 [3], with SK-MEL-2, in the test on SK-OV-3, in the test on XF498 and in the test with HCT-15 was 0.4 to 26.8 µg/mL (≈ 1.64 to 110 µM) throughout.
Regarding `COc1cc(-c2cc(=O)c3c(O)c(OC)c(OC)cc3o2)ccc1O` [CIRSILENEOL], the IC50 in the test on A-431, in the test with MCF7, in the test with A2780 and in the test with HeLa [10] was 33 to 75 µg/mL (≈ 95.8 to 218 µM) in each case.
`C=C1C(=O)O[C@H]2[C@H]1CC[C@@](C)(O)[C@]13O[C@H]1[C@H](Cl)[C@@](C)(O)[C@H]23`: the IC50 in the test with A-431, in the test with MCF7, in the test on A2780 and with HeLa [10] was 33 to 75 µg/mL (≈ 105 to 238 µM) in each case. The pIC50 in the test with A549 [9] and in the test on Bel-7402 was 5.22 to 5.48 each time.
In the case of `C=C1C(=O)O[C@H]2[C@H]1[C@@H](OC(=O)C(C)C)CC(C)=C1C[C@@H]3O[C@]3(C)[C@@H]12`, the IC50 with U-937, in the test on HeLa [1] and in the test on A549 [2] was 16 to 43.5 µg/mL (≈ 48.1 to 131 µM) in each case.
`COc1cc2ccc(=O)oc2cc1OC` [SCOPARONE]: in the test with HL-60, the IC50 (in general, the midpoint of a concentration-inhibition curve) lay within 1.1 to 40.7 µg/mL (≈ 5.33 to 197 µM).
Take `C=C1C(=O)O[C@H](C2=C(C)[C@@H](OC)CC2=O)[C@H]1CCC(C)=O`: the IC50 in the test on A-431, with MCF7, with A2780 and with HeLa [10] was 33 to 75 µg/mL (≈ 113 to 257 µM) throughout.
With `CC1=CCC2[C@@H]1[C@H]1OC(=O)[C@@H](C)[C@@H]1C[C@]1(C)O[C@H]21` (some centres undefined), the pIC50 (with SH-SY5Y; in [11]; in the test with HepG2) was 3.63 to 3.64 each time.
Turning to `CC(C)=CCC[C@H](C)[C@H]1C[C@@H]2OO[C@H]1C=C2C`, the IC50 in the test with A549 [3], in the test with SK-MEL-2, in the test on SK-OV-3, in the test with XF498 and in the test with HCT-15 was 0.1 to 0.87 µg/mL (≈ 0.423 to 3.68 µM) each time.
